Measurements: patent US12391683B2, “Therapeutic compounds and methods” (Actio Biosciences, Inc., priority 2022, dated 2025)

Experiments:
[1] = molecular target: T1, TRPC6 channels (Homo sapiens, UniProt Q9Y210); test: TRP Family FLIPR Assay, TRPC6; assay type: cell-based; conditions: HEK293 cells
T1 construct: expressed in transfected cells; host or cells: HEK293
T1 sequence (Q9Y210 1-931): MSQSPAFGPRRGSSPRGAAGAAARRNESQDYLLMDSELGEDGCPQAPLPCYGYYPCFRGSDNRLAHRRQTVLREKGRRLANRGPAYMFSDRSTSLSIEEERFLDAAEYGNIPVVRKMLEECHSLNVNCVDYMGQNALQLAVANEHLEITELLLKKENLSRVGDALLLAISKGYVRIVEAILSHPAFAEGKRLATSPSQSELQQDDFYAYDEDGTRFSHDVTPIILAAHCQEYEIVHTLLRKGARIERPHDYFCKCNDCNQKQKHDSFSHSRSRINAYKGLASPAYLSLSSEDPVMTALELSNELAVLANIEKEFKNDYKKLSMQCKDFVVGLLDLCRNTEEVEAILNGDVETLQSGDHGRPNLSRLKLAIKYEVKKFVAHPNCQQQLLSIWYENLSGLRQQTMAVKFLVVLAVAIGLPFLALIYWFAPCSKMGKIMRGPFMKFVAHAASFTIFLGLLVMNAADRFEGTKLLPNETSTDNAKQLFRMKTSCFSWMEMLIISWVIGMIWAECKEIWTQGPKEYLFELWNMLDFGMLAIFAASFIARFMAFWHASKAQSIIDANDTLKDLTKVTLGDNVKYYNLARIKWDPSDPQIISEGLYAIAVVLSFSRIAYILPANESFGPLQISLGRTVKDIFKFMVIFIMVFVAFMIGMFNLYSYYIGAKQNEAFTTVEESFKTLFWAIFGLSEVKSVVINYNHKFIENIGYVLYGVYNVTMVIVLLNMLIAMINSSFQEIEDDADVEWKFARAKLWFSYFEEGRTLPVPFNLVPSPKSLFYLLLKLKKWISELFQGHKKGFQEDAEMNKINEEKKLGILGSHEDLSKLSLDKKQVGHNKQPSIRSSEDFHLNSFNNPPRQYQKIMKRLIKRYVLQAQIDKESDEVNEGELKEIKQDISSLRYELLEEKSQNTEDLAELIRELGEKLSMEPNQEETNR
Procedure: (§1) The compound of Example 5 was tested for selectivity against a panel of Human TRP family ion channels in a TRP Family FLIPR Assay as described below. • 1. TRPC3 channels (human TRPC3 variant 1 gene, expressed in HEK293 cells). • 2. TRPC4 channels (human TRPC4 gene, expressed in HEK293 cells). • 3. TRPC5 channels (human TRPC5 gene, expressed in HEK293 cells). • 4. TRPC6 channels (human TRPC6 gene, expressed in HEK293 cells). • 5. TRPM2 channels (human TRPM2 gene, transiently expressed in HEK293 cells). • 6. TRPM3 channels (human TRPM3 gene, transiently expressed in HEK293 cells). • 7. TRPM4 channels (human TRPM4 gene, expressed in CHO cells). • 8. […]
(§2) Data acquisition was performed via the FLIPR Control software supplied with the FLIPR System (MDS-AT) and data was analyzed using Microsoft Excel (Microsoft Corp., Redmond, WA) or GraphPad Prism. […]
(§3) [formula] where Base is the response at low concentrations of test article, Max is the maximum response at high concentrations, xhalf the EC50, or IC50, the concentration of test article producing either half-maximal activation or inhibition, and rate is the Hill coefficient. […] No assumptions about the fit parameters was made; the fit parameters were determined by the algorithm.
(§4) The effect of each test article was evaluated at eight (8) concentrations: 0.003, 0.01, 0.03, 0.1, 0.3, 1, 3 and 10 μM, n≤4 wells/concentration). […]

[2] = molecular target: T2, TRPM3 channels (Homo sapiens, UniProt Q9HCF6); test: TRP Family FLIPR Assay, TRPM3; assay type: cell-based; conditions: HEK293 cells (transient)
T2 construct: expressed in transfected cells; host or cells: HEK293 (transient)
Procedure: as §1, §2, §3, §4

T2 sequence (Q9HCF6 whole entry): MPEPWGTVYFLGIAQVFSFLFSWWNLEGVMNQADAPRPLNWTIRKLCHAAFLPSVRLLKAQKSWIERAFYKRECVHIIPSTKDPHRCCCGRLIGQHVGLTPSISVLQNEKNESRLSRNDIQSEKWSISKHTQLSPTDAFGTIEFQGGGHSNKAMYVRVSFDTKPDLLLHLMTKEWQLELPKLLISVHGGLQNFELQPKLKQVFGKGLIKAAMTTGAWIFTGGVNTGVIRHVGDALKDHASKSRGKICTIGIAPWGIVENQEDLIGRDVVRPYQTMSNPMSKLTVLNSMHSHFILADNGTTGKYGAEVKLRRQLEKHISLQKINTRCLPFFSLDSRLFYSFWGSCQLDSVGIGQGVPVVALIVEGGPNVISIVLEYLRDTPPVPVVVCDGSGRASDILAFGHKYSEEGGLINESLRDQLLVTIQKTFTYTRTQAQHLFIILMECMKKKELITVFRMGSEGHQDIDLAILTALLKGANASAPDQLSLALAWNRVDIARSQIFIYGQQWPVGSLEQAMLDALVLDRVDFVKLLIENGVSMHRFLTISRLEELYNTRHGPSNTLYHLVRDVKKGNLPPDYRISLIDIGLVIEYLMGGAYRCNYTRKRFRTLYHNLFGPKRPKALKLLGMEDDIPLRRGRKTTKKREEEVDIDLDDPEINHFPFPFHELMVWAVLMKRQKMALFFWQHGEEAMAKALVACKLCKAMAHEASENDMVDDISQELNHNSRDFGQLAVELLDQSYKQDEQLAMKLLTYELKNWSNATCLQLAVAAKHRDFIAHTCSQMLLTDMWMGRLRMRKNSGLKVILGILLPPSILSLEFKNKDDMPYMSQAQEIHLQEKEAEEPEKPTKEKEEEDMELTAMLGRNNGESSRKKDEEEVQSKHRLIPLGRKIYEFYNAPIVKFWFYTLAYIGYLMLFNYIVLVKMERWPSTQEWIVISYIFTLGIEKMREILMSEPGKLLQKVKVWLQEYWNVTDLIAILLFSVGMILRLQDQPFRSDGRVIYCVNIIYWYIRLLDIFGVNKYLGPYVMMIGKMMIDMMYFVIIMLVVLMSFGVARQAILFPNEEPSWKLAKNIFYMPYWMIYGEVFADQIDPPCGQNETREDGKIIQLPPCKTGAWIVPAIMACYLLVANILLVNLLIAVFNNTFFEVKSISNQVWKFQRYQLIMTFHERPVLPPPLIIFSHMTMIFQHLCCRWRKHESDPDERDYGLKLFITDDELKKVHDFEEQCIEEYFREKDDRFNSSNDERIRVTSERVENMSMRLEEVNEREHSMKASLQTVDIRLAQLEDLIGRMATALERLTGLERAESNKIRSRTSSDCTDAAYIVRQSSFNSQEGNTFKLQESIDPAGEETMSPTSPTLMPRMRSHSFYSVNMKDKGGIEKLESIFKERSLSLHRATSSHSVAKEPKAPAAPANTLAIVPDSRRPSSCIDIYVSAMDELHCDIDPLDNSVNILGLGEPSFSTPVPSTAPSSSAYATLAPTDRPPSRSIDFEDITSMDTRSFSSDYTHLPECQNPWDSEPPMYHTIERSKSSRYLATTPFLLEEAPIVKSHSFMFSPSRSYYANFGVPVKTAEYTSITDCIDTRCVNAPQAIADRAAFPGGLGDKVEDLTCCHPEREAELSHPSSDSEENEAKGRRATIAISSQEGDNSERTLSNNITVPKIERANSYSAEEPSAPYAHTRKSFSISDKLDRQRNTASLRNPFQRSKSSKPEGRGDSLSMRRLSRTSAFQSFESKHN

CC(C)(O)c1cnc(N2C[C@@]3(CC[C@@H](F)[C@](C)(Cn4cnc5ccc(C#N)cc54)C3)OC2=O)cn1 (single isomer, unassigned) [Example 5]
> 10 µM: EC50 ([1]; agonist mode, vs EMAX of Na-ATP 100 μM, read-out: EC50 hTRPC6) | IC50 ([1]; antagonist mode, activated with 10 μM Na-ATP, 0.003-10 μM, read-out: IC50 hTRPC6) | EC50 ([2]; agonist mode, vs EMAX of pregnenolone 100 μM, read-out: EC50 hTRPM3) | IC50 ([2]; antagonist mode, activated with pregnenolone 30 μM, 0.003-10 μM, read-out: IC50 hTRPM3)
